Measurements as given in ChEMBL document CHEMBL6182944, “Substrate Specificity of the Organic Cation Transporters MATE1 and MATE2K and Functional Overlap with OCT1 and OCT2” (J Med Chem, 2025).

Key:
[1] = target: T1, Multidrug and toxin extrusion protein 1 (Homo sapiens, UniProt Q96FL8); experiment: Substrate activity at MATE1 (unknown origin) expressed in HEK293 cells assessed as Vmax (maximum transport velocity) by HPLC-MS/MS analysis; assay type: cell-based
T1 sequence (Q96FL8 whole entry): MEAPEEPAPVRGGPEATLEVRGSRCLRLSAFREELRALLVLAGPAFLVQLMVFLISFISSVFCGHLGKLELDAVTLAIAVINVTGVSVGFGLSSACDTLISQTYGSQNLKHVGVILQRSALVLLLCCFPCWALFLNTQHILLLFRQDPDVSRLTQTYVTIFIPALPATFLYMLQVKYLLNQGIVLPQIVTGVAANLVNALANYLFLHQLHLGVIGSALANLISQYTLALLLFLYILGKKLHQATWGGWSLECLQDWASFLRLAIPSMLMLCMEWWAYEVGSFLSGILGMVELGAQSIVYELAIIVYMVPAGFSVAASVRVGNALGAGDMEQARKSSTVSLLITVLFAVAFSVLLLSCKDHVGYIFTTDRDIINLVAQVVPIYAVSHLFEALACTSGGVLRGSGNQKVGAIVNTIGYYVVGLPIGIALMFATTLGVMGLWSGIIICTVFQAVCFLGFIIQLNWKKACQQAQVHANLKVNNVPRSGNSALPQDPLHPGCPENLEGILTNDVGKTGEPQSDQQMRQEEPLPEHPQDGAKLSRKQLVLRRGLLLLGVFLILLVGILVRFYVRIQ

[2] = target: T1, Multidrug and toxin extrusion protein 1; experiment: Substrate activity at MATE1 (unknown origin) expressed in HEK293 cells assessed as intrinsic clearance by measuring ratio of Vmax (maximum transport velocity) over Km measured per mg of protein by HPLC-MS/MS analysis; assay type: cell-based
[3] = target: T2, Multidrug and toxin extrusion protein 2 (Homo sapiens, UniProt Q86VL8); experiment: Substrate activity at MATE2-K (unknown origin) expressed in HEK293 cells assessed as Vmax (maximum transport velocity) by HPLC-MS/MS analysis; assay type: cell-based
T2 sequence (Q86VL8 whole entry): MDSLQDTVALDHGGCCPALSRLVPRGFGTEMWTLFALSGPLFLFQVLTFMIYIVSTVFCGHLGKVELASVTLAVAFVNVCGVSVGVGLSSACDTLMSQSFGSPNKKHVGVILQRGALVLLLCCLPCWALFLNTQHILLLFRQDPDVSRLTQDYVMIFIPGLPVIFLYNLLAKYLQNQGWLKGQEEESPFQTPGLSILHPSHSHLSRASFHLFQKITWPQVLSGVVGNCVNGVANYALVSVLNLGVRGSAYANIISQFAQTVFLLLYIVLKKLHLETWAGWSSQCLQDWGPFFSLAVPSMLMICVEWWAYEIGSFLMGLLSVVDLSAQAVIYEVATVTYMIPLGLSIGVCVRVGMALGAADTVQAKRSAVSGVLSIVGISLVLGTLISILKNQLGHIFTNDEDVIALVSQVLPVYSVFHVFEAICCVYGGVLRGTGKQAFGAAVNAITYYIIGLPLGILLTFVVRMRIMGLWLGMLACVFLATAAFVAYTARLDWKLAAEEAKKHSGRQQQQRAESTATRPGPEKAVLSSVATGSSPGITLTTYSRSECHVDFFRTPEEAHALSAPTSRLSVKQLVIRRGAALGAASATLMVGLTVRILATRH

[4] = target: T2, Multidrug and toxin extrusion protein 2; experiment: Substrate activity at MATE2-K (unknown origin) expressed in HEK293 cells assessed as intrinsic clearance by measuring ratio of Vmax (maximum transport velocity) over Km measured per mg of protein by HPLC-MS/MS analysis; assay type: cell-based
MATE1 = target: T3, MATE1 (Homo sapiens, UniProt Q96FL8); experiment: in vitro
T3 sequence (Q96FL8 whole entry): T1 sequence (Q96FL8 whole entry)

MATE2-K = target: T4, MATE2-K (Homo sapiens, UniProt Q86VL8); experiment: in vitro
T4 sequence (Q86VL8 whole entry): T2 sequence (Q86VL8 whole entry)

[5] = target: T1, Multidrug and toxin extrusion protein 1; experiment: Substrate activity at MATE1 (unknown origin) expressed in HEK293 cells assessed as ratio of uptake by the enantiomer with higher value to enantiomer with lower value at 2.5 uM measured after 1 min by HPLC-MS/MS analysis; assay type: cell-based; details: hek293, 1 min
[6] = target: T2, Multidrug and toxin extrusion protein 2; experiment: Substrate activity at MATE2-K (unknown origin) expressed in HEK293 cells assessed as ratio of uptake by the enantiomer with higher value to enantiomer with lower value at 2.5 uM measured after 1 min by HPLC-MS/MS analysis; assay type: cell-based; details: hek293, 1 min
[7] = HEK293 cells expressing MATE2-K

| Structure (SMILES) | Vmax [1] | CL [2] | CL [4] | uptake ratio at 1 min, 2.5 µM (MATE1; HEK293 cells expressing MATE1) | uptake ratio at 1 min, 2.5 µM (MATE2-K; [7]) | further results |
| --- | --- | --- | --- | --- | --- | --- |
| CNC[C@H](O)c1cccc(O)c1 [PHENYLEPHRINE] | 11611 pmol/min | 24.5 µL/min | 1.79 µL/min |  |  | Vmax [3]: 776 pmol/min; uptake ratio at 1 min, 2.5 µM (MATE1; hek293): > 2; uptake ratio at 1 min, 2.5 µM (MATE2-K; hek293): > 2 |
| CC(=O)OC(C)C[N+](C)(C)C (configuration not stated) [METHACHOLINE] | 17843 pmol/min | 8.98 µL/min | 0.88 µL/min |  |  | Vmax [3]: 1240 pmol/min; uptake ratio at 1 min, 2.5 µM (MATE1; hek293): > 2; uptake ratio at 1 min, 2.5 µM (MATE2-K; hek293): > 2 |
| CCN1CCCC1CNC(=O)c1cc(S(N)(=O)=O)ccc1OC (configuration not stated) [SULPIRIDE] | 851 pmol/min | 53.2 µL/min | 44.9 µL/min |  |  | Vmax [3]: 1025 pmol/min |
| Nc1ccn([C@H]2CC[C@@H](CO)O2)c(=O)n1 [ZALCITABINE] | 10171 pmol/min | 6.53 µL/min |  |  |  |  |
| CN(C)CCc1c[nH]c2ccc(CC3COC(=O)N3)cc12 (racemic) | 2992 pmol/min | 52.4 µL/min | 32.1 µL/min |  |  | Vmax [3]: 740 pmol/min |
| CC(CCc1ccc(O)cc1)NCCc1ccc(O)c(O)c1 (configuration not stated) [DOBUTAMINE] | 2586 pmol/min | 29.2 µL/min | 5.71 µL/min | > 2 | > 2 |  |
| NC1CONC1=O (racemic) |  |  |  |  |  | Ratio [5]: 1; Ratio [6]: > 1 |
| C[N@+]1(CC2CC2)CC[C@]23c4c5ccc(O)c4O[C@H]2C(=O)CC[C@@]3(O)[C@H]1C5 [METHYLNALTREXONE] | 56 pmol/min |  |  |  |  |  |
| CNCCc1ccc(O)cc1 |  |  |  | > 2 | < 2 |  |
| COc1ccc2[nH]cc(C[C@H](N)C(=O)O)c2c1 |  |  |  | < 2 | < 2 |  |
| N=C(N)NCCCCN [AGMATINE] |  |  |  | < 2 | < 2 |  |
| Cc1ncc(CO)c(CO)c1O [PYRIDOXINE] | 10014 pmol/min | 2.37 µL/min | 1.2 µL/min |  |  | uptake ratio at 1 min, 2.5 µM (MATE1; hek293): > 2; uptake ratio at 1 min, 2.5 µM (MATE2-K; hek293): < 2 |
| CCC1(c2ccccc2)C(=O)NC(=O)NC1=O [PHENOBARBITAL] |  |  |  | < 2 | < 2 |  |
| CN(C)CCc1c[nH]c2ccc(C[C@H]3COC(=O)N3)cc12 [ZOLMITRIPTAN] | 2992 pmol/min | 65.2 µL/min | 17.6 µL/min |  |  |  |
| NCCc1ccc(O)c(O)c1 [DOPAMINE] | 10148 pmol/min | 19.2 µL/min | 1.27 µL/min |  |  | uptake ratio at 1 min, 2.5 µM (MATE1; hek293): > 2; uptake ratio at 1 min, 2.5 µM (MATE2-K; hek293): > 2 |
| Nc1ncn([C@H]2C[C@H](O)[C@@H](CO)O2)c(=O)n1 [DECITABINE] |  |  |  | < 2 | < 2 |  |
| NCCc1ccccc1 [PHENETHYLAMINE] |  |  |  | < 2 | < 2 |  |
| CC(C)NCC(O)COc1ccc(CCOCC2CC2)cc1 (configuration not stated) [BETAXOLOL] |  |  |  |  |  | uptake ratio at 1 min, 2.5 µM (MATE1; hek293): < 2; uptake ratio at 1 min, 2.5 µM (MATE2-K; hek293): < 2 |
| Cc1ncc(CO)c(CN)c1O [PYRIDOXAMINE] | 5442 pmol/min | 3.23 µL/min | 0.64 µL/min |  |  | Vmax [3]: 989.5 pmol/min; uptake ratio at 1 min, 2.5 µM (MATE1; hek293): > 2; uptake ratio at 1 min, 2.5 µM (MATE2-K; hek293): < 2 |
| Nc1ccn([C@@H]2O[C@H](CO)[C@@H](O)C2(F)F)c(=O)n1 [GEMCITABINE] |  |  |  | < 2 | < 2 |  |
| Nc1nc(CC(=O)Nc2ccc(CCNC[C@H](O)c3ccccc3)cc2)cs1 [MIRABEGRON] |  |  |  | > 2 | > 2 |  |
